Laboratory results from BindingDB's records for doi:10.1016/j.bmcl.2014.06.001 (Tohoku Pharmaceutical University, 2014).

Assay: Inhibition of Wistar rat intestinal maltase assessed as inhibition of D-glucose release after 30 mins by spectrophotometry

IC50: 170 nM
Compound: OC[C@@H]1N[C@@H](CCCCc2ccc(O)cc2)[C@H](O)[C@H]1O
